From the CheMixHub viscosity set
Values joined by “and” are separate entries in the source; they are usually repeats but may differ in a detail not shown here. Equal values may be shown once.

C/C=C/C(=O)OCC
101 kPa
Conditions | viscosity [mPa·s]
293.15 K | 0.8184
298.15 K | 0.7576
303.15 K | 0.7053
313.15 K | 0.6154
323.15 K | 0.5471

C=CC(=O)OC(C)(C)C
viscosity [mPa·s]
Conditions | 293.15 K | 298.15 K | 303.15 K | 308.15 K | 313.15 K | 318.15 K
100 kPa | 0.9072 | 0.8309 | 0.76 | 0.701 | 0.6485 | 0.6034
101 kPa | 0.9072 | 0.8309 | 0.76 | 0.701 | 0.6485 | 0.6034

CC(=O)[O-].CCCC[N+](CC)(CC)CC
101 kPa
Conditions | viscosity [mPa·s]
298.2 K | 439
313.2 K | 306.7

CC(C)OCCO
101.33 kPa
Conditions | viscosity [mPa·s]
298.15 K | 2.106
308.15 K | 1.649
318.15 K | 1.315

CC(C)c1cc(C(C)C)cc(C(C)C)c1
102 kPa
Conditions | viscosity [mPa·s]
293.15 K | 4.12
303.15 K | 3.05
313.15 K | 2.35
323.15 K | 1.86

CCCCCC(C)C
100 kPa
Conditions | viscosity [mPa·s]
293.15 K | 0.5
303.15 K | 0.444
313.15 K | 0.393
323.15 K | 0.355

CCCCCCBr
101 kPa
Conditions | viscosity [mPa·s]
298.15 K | 0.9475
303.45 K | 0.885
313.35 K | 0.782

CCCCCCCC(=O)OCC(COC(=O)CCCCCCC)OC(=O)CCCCCCC
101.33 kPa
Conditions | viscosity [mPa·s]
298 K | 19.98
303 K | 16.58
308 K | 13.79
313 K | 11.57

CCCCCCCCCCCC[P+](CCCC)(CCCC)CCCC.N#Cc1ccc[n-]1
100 kPa
Conditions | viscosity [mPa·s]
293.15 K | 567
298.15 K | 389
303.15 K | 297
313.15 K | 166

CCCCCCCCN(CCCCCCCC)CCCCCCCC
Conditions | viscosity
298.15 K, 101.33 kPa | 8.325 mPa·s and 8.325 mPa·s
303.15 K, 101 kPa | 6.95 mPa·s

CCCCCC[N+]1(C)CCCC1.O=S(=O)([N-]S(=O)(=O)C(F)(F)F)C(F)(F)F
Conditions | viscosity [mPa·s]
293.15 K, 100 kPa | 136.2
295.2 K, 101.3 kPa | 119.8
298.15 K, 100 kPa | 102.8
300.2 K, 101.3 kPa | 96.8
303.15 K, 100 kPa | 79.59
305.2 K, 101.3 kPa | 79.6
308.15 K, 100 kPa | 63.07
310.2 K, 101.3 kPa | 64.8
313.15 K, 100 kPa | 51.01
313.15 K, 101 kPa | 52.7
315.2 K, 101.3 kPa | 54.2
320.2 K, 101.3 kPa | 45.9

CCCCNCCO
101.33 kPa
Conditions | viscosity [mPa·s]
293.15 K | 19.67
298.15 K | 15.39
303.15 K | 12.23
308.15 K | 9.869
313.15 K | 8.07
318.15 K | 6.68
323.15 K | 5.591

CCCCOCCO
Conditions | viscosity
293.15 K, 101.3 kPa | 3.248 mPa·s
293.15 K, 101.33 kPa | 3.26 mPa·s
295.15 K, 101 kPa | 3.015 mPa·s
297.15 K, 101 kPa | 2.857 mPa·s
298 K, 101.3 kPa | 2.786 mPa·s
298.15 K, 100 kPa | 2.855 mPa·s
298.15 K, 101.3 kPa | 2.834 mPa·s
298.15 K, 101.33 kPa | 2.844 mPa·s
298.45 K, 101 kPa | 2.825 mPa·s
299.15 K, 101 kPa | 2.709 mPa·s
301.15 K, 101 kPa | 2.576 mPa·s
303 K, 101.3 kPa | 2.403 mPa·s
303.15 K, 101.33 kPa | 2.408 mPa·s
305.15 K, 101 kPa | 2.327 mPa·s
307.15 K, 101 kPa | 2.217 mPa·s
308 K, 101.3 kPa | 2.115 mPa·s
308.15 K, 100 kPa | 2.274 mPa·s
308.15 K, 101.3 kPa | 2.228 mPa·s and 2.204 mPa·s
308.15 K, 101.33 kPa | 2.193 mPa·s
309.15 K, 101 kPa | 2.118 mPa·s
311.15 K, 101 kPa | 2.017 mPa·s
313 K, 101.3 kPa | 1.867 mPa·s
313.15 K, 101.3 kPa | 1.964 mPa·s
313.15 K, 101.33 kPa | 1.97 mPa·s and 1.869 mPa·s
315.15 K, 101 kPa | 1.844 mPa·s
317.15 K, 101 kPa | 1.764 mPa·s
318 K, 101.3 kPa | 1.657 mPa·s
318.15 K, 101 kPa | 1.937 mPa·s and 1.938 mPa·s and 1.928 mPa·s
318.15 K, 101.3 kPa | 1.759 mPa·s
318.15 K, 101.33 kPa | 1.764 mPa·s
319.15 K, 101 kPa | 1.688 mPa·s
321.15 K, 101 kPa | 1.618 mPa·s
323.15 K, 101 kPa | 1.552 mPa·s
323.15 K, 101.3 kPa | 1.584 mPa·s
323.15 K, 101.33 kPa | 1.588 mPa·s

CCCC[n+]1ccn(C)c1.N#C[C-](C#N)C#N
100 kPa
Conditions | viscosity [mPa·s]
293.15 K | 34.9
298.15 K | 27.97
303.15 K | 22.85
308.15 K | 18.98
313.15 K | 15.99
318.15 K | 13.66
323.15 K | 11.8

CCCC[n+]1ccn(C)c1.O=[N+]([O-])[O-]
101 kPa
Conditions | viscosity [mPa·s]
293.15 K | 212.1
298.15 K | 158.8
303.15 K | 121.2
308.15 K | 94.07
313.15 K | 74.19
318.15 K | 59.38
323.15 K | 48.18

CCCC[n+]1ccn(C)c1C.F[B-](F)(F)F
Conditions | viscosity [mPa·s]
298.15 K, 101 kPa | 573

CCNCCO
viscosity [mPa·s]
Conditions | 293.15 K | 298.15 K | 303.15 K | 308.15 K | 313.15 K | 318.15 K | 323.15 K
101 kPa | – | – | 9.639 | 7.83 | 6.419 | 5.358 | 4.517
101.33 kPa | 16.27 | 12.75 | 10.16 | 8.223 | 6.748 | 5.608 | 4.714
